The values below come from publication PMC4724314 (European journal of medicinal chemistry, 2015).

A word on the IC50: it is the point on the concentration scale where inhibition reaches its midpoint.

For data set [1], the target named is T1, IDO1 (Homo sapiens, UniProt P14902). The experiment in a line: Recombinant human IDO1 enzyme inhibition assay. The data set is classed as biochemical. The following applies: for ligand efficiency: LE=1.37*pKi/number of heavy atoms; for mode of inhibition: Lineweaver-Burk graphical analysis.
T1 sequence (P14902 whole entry): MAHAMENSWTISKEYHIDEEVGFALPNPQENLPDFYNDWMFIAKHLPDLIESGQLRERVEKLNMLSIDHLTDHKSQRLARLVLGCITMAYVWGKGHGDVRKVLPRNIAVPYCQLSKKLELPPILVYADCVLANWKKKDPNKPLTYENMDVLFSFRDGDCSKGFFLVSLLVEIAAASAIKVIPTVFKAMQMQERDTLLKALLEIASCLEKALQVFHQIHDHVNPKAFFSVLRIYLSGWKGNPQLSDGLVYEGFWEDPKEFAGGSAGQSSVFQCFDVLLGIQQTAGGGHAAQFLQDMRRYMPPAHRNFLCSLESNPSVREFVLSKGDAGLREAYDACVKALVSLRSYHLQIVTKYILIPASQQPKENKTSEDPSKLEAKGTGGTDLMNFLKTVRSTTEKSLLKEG
The subject of data set [2] is catalase. The experiment in a line: Catalase inhibition. In kind it is biochemical. The following applies: catalase IC50 relative to IDO1 IC50.
Data set [3] concerns HeLa cells. The experiment in a line: Cell viability. In kind it is cell-based, human. To be noted: up to concentrations of 100 μM.
Data set [4] relates to human serum protein. Description: Impact of human serum protein binding on inhibitory activity. In kind it is in vitro ADME.
Data set [5] has as its target T1, IDO1. The experiment in a line: UV-Vis absorption spectroscopy of inhibitor binding to IDO1. The following applies: 500 μM inhibitor; for effect of inhibitor on CO-bound ferrous IDO1: CO as surrogate for O2; for Soret band of deoxy ferrous IDO1 on inhibitor binding: without inhibitor 427 nm.

Structures can show the parent of a compound that is named as a salt.

catalase, sequence (P00432 2-527): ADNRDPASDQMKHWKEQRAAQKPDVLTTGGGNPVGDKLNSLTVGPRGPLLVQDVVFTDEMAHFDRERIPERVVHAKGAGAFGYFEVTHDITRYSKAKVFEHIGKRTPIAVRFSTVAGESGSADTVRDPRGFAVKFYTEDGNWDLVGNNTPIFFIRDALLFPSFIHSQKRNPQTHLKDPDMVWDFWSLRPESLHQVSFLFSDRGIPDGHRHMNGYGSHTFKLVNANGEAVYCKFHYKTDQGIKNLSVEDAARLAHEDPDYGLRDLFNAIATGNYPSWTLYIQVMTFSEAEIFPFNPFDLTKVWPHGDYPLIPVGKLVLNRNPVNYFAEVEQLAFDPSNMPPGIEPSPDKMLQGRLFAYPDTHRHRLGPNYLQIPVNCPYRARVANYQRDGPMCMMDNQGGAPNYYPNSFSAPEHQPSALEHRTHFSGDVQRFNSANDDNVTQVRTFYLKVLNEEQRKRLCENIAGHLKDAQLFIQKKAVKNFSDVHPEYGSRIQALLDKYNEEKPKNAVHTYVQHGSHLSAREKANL

In the case of `NOCCc1ccccc1` [Compound 5, O-Phenethylhydroxylamine hydrochloride], in data set [1], the IC50 amounted to 20 µM.

For `Cl.NOCc1ccc(I)cc1` [Compound 8, 4-(Iodobenzyl)hydroxylamine hydrochloride], in data set [1], the “reversibility of IDO1 inhibition” value is “reversible”, the ligand efficiency worked out at 0.93 and the mode of inhibition entry was “uncompetitive”. Besides, in data set [2], the “Catalase Fold” value is given as over 300 fold. For the same compound, in data set [3], the “cell viability (cytotoxicity)” value is given as “good cell viability”. Besides, the “impact of human serum protein binding on inhibitory activity” value in data set [4] is listed as “substantial reduction in inhibitory activity”. In addition, in data set [5], the “effect of inhibitor on CO-bound ferrous IDO1” value is “inhibitor binding partially prevents CO binding to the heme iron” and the “Soret band of deoxy ferrous IDO1 on inhibitor binding” value (shortened to “Soret band … on inhibitor binding”) is reported as 419–421 nm.

Regarding `Cl.NOCc1cccc(Cl)c1` [Compound 9, O-(3-Chlorobenzyl)hydroxylamine hydrochloride], in data set [1], the “reversibility of IDO1 inhibition” value is listed as “reversible”, the ligand efficiency is 0.93 and the mode of inhibition entry is listed as “uncompetitive”. For the same compound, the “Catalase Fold” value in data set [2] is over 320 fold. The “cell viability (cytotoxicity)” value in data set [3] is “good cell viability”. Besides, the “impact of human serum protein binding on inhibitory activity” value in data set [4] is listed as “relatively unaffected”.

In the case of `COc1ccc(OC)c(CON)c1.Cl` [Compound 40, O-(2,5-Dimethoxybenzyl)hydroxylamine hydrochloride], in data set [5], the “effect of inhibitor on CO-bound ferrous IDO1” value is “inhibitor binding partially prevents CO binding to the heme iron” and the “Soret band … on inhibitor binding” value was 419–421 nm.

`NOCc1ccccc1` [Lead, O-benzylhydroxylamine]: in data set [5], the “effect of inhibitor on CO-bound ferrous IDO1” value is given as “inhibitor binding prevents CO binding to the heme iron” and the “Soret band … on inhibitor binding” value is given as 419–421 nm.

As to `NNc1ccccc1` [Ph-NH-NH2, phenylhydrazine], in data set [1], the “reversibility of IDO1 inhibition” value is “did not see any signs of irreversible inhibition”.
